Measured values taken from article PMC6747274, “Multifunctional Peptides from Spanish Dry-Cured Pork Ham: Endothelial Responses and Molecular Modeling Studies” (International Journal of Molecular Sciences, 2019).
Where no end group is shown, it is not given here.

How the values were obtained:
Assay type in all cases: cell-based, human
[1] = system: VCAM-1 mRNA, EA.hy926 cells; assay: VCAM-1 mRNA expression by RT-PCR in EA.hy926 cells; conditions: 300 µM peptide 16 h, then 100 ng/mL TNF-α 6 h; p = 0.01 (BP2), 0.03 (BP3), 0.02 (BP4)
Experimental: (§1) EA.hy926 cells, the hybrid human umbilical vein endothelial cell line, were obtained from the American Type Culture Collection (ATCC® CRL2922™, Rockville, MD, USA). Cells were cultured in high glucose Dulbecco’s Modified Eagle’s Medium (DMEM), containing 10% heat-inactivated fetal bovine serum (FBS, Biowest, Riverside, CA, USA) and 50 U/mL of penicillin and 50 µg/mL streptomycin (Sigma Aldrich Chemical Co., Saint Louis, MO, USA). Cells were grown in 5% CO2 in a humidified air incubator at 37 °C. Subculture was performed when 90% confluence was reached.
(§2) EA.hy926 were seeded in six-well plates at 0.25 × 10^6 cells/well in DMEM supplemented with 5% FBS. Cells were treated with 300 µM of each peptide for 16 h. Then, 100 ng/mL TNF-α or 300 µM H2O2 were added for an additional 6 h or 24 h, respectively.
(§3) Total RNA was extracted from EA.hy926 cells using 300 µL Trisure™ (Bioline, Taunton, MA, USA) reagent and Direct-zol™ RNA MiniPrep (Zymo Research Irvine, Irvine, CA, USA) according to the manufacturer’s protocol. Total RNA was reverse-transcribed into complementary DNA (Sensifast cDNATM Synthesis kit, Bioline, Taunton, MA, USA). The mRNA levels of the target genes were quantified by RT-PCR using SensiFAST SYBER Hi-ROX Kit (Bioline, Taunton, MA, USA) with StepOnePlus Real-Time PCR System (Applied Biosystems, Foster City, CA, USA). Briefly, 5 µL of 1:5 diluted cDNA was added to the qPCR reaction containing 10 μL 2X SensiFAST Mix and 400 nM of each primer in a total volume of 20 μL.
(§4) Specific and validated primers for human glyceraldehyde-3-phosphate dehydrogenase (GADPH), intercellular adhesion marker-1 (ICAM-1), vascular cell adhesion marker-1 (VCAM-1), endothelial nitric oxide synthase (eNOS), interleukin 6 (IL-6), catalase, SOD (Super Oxide Dismutase), NADPH (Nicotinamide Adenine Dinucleotide Phosphate oxidase) and Bax (proapoptosis regulator) genes were used (Sigma-Aldrich Chemical Co., Saint Louis, MO, USA). […]
(§5) The relative quantification of gene expression was determined by the comparative fold change […] method. […]

[2] = system: eNOS mRNA, EA.hy926 cells; assay: eNOS mRNA expression by RT-PCR in EA.hy926 cells; conditions: 300 µM peptide 16 h, then 100 ng/mL TNF-α 6 h; p = 0.0003 (BP1), 0.04 (BP2)
Experimental: as §1, §2, §3, §4, §5

[3] = system: ICAM-1 surface expression, EA.hy926 cells; assay: ICAM-1 surface expression by flow cytometry (MFI); conditions: for ICAM-1 surface density (in words): 300 µM peptide + TNF-α vs TNF-α activated cells, all p < 0.05; for ICAM-1 MFI: preincubation with 300 µM peptide, then 100 ng/mL TNF-α, six independent experiments, mean ± SD, p vs TNF-α: BP1 0.03, BP2 0.009, BP3 0.09, BP4 0.04, control 71.36 ± 8.31
Experimental: as §1, §2
To measure adhesion molecule content in human endothelial cells by flow cytometry, the cell monolayer was detached and fixed before immunofluorescence labelling. The following antibodies were used per sample: 20 µL anti-ICAM-1/CD54-phycoerythrin (PE) (clone HA58, BD Biosciences, Franklin Lakes, NJ, USA) and 5 µL anti-VCAM-1/CD106-PerCP-Cy5.5 (clone 51–10C9; BD Biosciences, San Jose, CA, USA), according to the manufacturer’s protocol. Stained cells (10,000 events) were examined by flow cytometry (FACS Calibur, Becton Dickinson, Mountain View, CA, USA) in a simultaneous two-color analysis with FL2 (PE) and FL3 (PerCP-Cy5.5) channels. Markers were set according to the negative controls to quantify the percentage of positively stained cells. Mean Fluorescence Intensity (MFI) was calculated for each antigen (MFI of total stained cells-MFI of negative control cells).

[4] = system: NF-κB, EA.hy926 cells; assay: NF-κB dual luciferase reporter assay; conditions: 300 µM peptide 16 h, then 50 ng/mL TNF-α 6 h
Experimental: To evaluate whether the synthetic peptides could modulate the NF-κB biological activity, a luciferase reporter assay was carried out, using the Renilla reporter as a specificity control and indicator of cell proliferation. In this study, NF-B activity was induced at a lower concentration of TNF-α (50 ng/mL) because of the high sensitivity of the approach. The normalized firefly/Renilla luciferase activity was reduced by around 25% of the activity when cells were pretreated with the BP1 (p = 0.002), BP2 (p = 0.003), and BP3 (p = 0.003) synthetic peptides (Figure 3). […] The basal activity for NF-κB was not inhibited by synthetic peptides without TNF-α stimulation (data not shown).
The dual luciferase assay has been widely used in cell lines to rapidly and accurately determine the activity of the promoter of NF-κB. […]
For luciferase reporter assays, 80,000 cells/well were seeded in 24-well plates overnight, followed by cotransfection with 0.5 μg pNF-κB:Luc/pRL-CMV at a ratio of 10:1 using 1.5 μL trans-it X2 reagent (Myrus®, Madison, WI, USA). […] NF-κB-dependent firefly luciferase activity and NF-κB-independent Renilla luciferase activity were assessed using Dual-Luciferase® Reporter Assay System (Promega, Madison, WI, USA) in a Luminometer Optocomp I (MGM Instruments). […]

| Substance | VCAM-1 mRNA expression vs TNF-α stimulated cells [1] | eNOS mRNA expression vs TNF-α stimulated cells [2] | ICAM-1 surface density (in words) [3] | ICAM-1 MFI [3] | reduction of normalized firefly/Renilla NF-κB luciferase activity ([4]; vs TNF-α, p = 0.002 (BP1), 0.003 (BP2), 0.003 (BP3), three independent experiments) | NF-κB activation (in words) ([4]; BP4 p = 0.012) |
| --- | --- | --- | --- | --- | --- | --- |
| KAAAATP [BP2] | downregulated | recovered | reduced ICAM-1 surface density | 1064.42 ± 32.02 | around 25% | – |
| AAATP [BP4] | downregulated | – | reduced ICAM-1 surface density | 926.01 ± 152.46 | – | repressed by BP4 to a lesser degree |
